Experimental data as given in patent US20160256449A1, “H3 RECEPTOR ANTAGONIST FOR USE IN THE TREATMENT OF ALZHEIMER'S DISEASE” (SANOFI, priority 2013, published 2016).
Counter-ions that a name gives are not always drawn.

What was measured:
CD1 male mice = assay: object recognition test in normal mice; format: in vivo; details: 3 mg/kg oral, individually
Source text: FIG. 1 illustrates the results of the effect of a co-treatment with 2-(cyclohexyl methyl)-N-{2-[(2S)-1-methyl pyrrolidin-2-yl]ethyl}-1,2,3,4-tetrahydroisoquinoline-7-sulfonamide and donepezil on recognition memory in normal mice at various delays using the object recognition task.
The results of this study are depicted in FIG. 1.

scopolamine treated mice = assay: object recognition task in scopolamine-treated mice; format: in vivo; details: 1 mg/kg alone
Source text: FIG. 2 illustrates the results of the effect of a co-treatment with 2-(cyclohexylmethyl)-N-{2-[(2S)-1-methylpyrrolidin-2-yl]ethyl}-1,2,3,4-tetrahydroisoquinoline-7-sulfonamide and donepezil on recognition memory deficit in scopolamine-treated mice using the object recognition task.
The results of this study are depicted in FIG. 2.

various rodent models = details: cited from earlier work

Compound | memory in object recognition test (CD1 male mice; 24 hours after administration) | procognitive effect in object recognition test (CD1 male mice; after 48 hours) | activity of the amount given alone, episodic memory deficits (scopolamine treated mice) | cognitive performances on short-term and long-term memory and attention deficits (various rodent models)
COc1cc2c(cc1OC)C(=O)C(CC1CCN(Cc3ccccc3)CC1)C2 (racemic) [donepezil hydrochloride, (±)-2,3-dihydro-5,6-dimethoxy-2-[[1-(phenylmethyl)-4-piperidinyl]methyl]-1H-inden-1-one, reference compound] | enhanced the memory | lack of procognitive effect | inactive | 
CN1CCC[C@H]1CCNS(=O)(=O)c1ccc2c(c1)CN(CC1CCCCC1)CC2 [2-(Cyclohexylmethyl)-N-{2-[(2S)-1-methylpyrrolidin-2-yl]ethyl}-1,2,3,4-tetrahydroisoquinoline-7-sulfonamide] |  |  |  | improves cognitive performances
